Measured values from US20240067662A1, “KRAS INHIBITORS” (Bristol-Myers Squibb Company, priority 2022, published 2024).

molecular target: GMPPNP-loaded KRAS G12C (Homo sapiens, UniProt P01116, G12C); experiment: KRAS G12C RAF Disruption Assay (HTRF); type: biochemical; settings: recombinant GMPPNP-loaded KRAS G12C (5 nM), 20 min with compound; GST-RAF1 RBD (9 nM); HTRF signal; read-out: KRASG12C RAF Disruption Assay (IC50)
Method: KRAS^G12C RAF Disruption Assay
This is a functional assay that measures activity of compounds against KRAS-G12C^(ON), i.e., the active form of KRAS G12C. Recombinant GMPPNP-loaded KRAS G12C (5 nM) was treated with compound at room temperature for 20 minutes in assay buffer (50 mM Tris pH 7.5, 100 mM NaCl, 1 mM MgCl2, 1 mM DTT, 100ug/ml BSA). Recombinant GST-RAF1 RBD (9 nM) was added, and the reaction mixture was incubated for 20 minutes. SA-Tb (0.25 nM) was added, and the reaction mixture was incubated for 3 hours. HTRF signal was measured (PerkinElmer Envision), the signal ratio (λem 520/λem 495) was calculated, and IC50 values were calculated from the dose-response curve.

First: C#Cc1c(F)ccc2cc(O)cc(-c3ncc4c(N5C[C@H]6CC[C@@H](C5)N6C(=O)/C(F)=C/c5ncccn5)nc(OC[C@@]56CCCN5C[C@H](F)C6)nc4c3F)c12 [Compound 7, (Z)-1-((1R, 5S)-3-(7-(8-ethynyl-7-fluoro-3-hydroxynaphthalen-1-yl)-8-fluoro-2-(((2R, 7aS)-2-fluorotetrahydro-1H-pyrrolizin-7a(5H)-yl)methoxy)pyrido[4,3-d]pyrimidin-4-yl)-3,8-diazabicyclo[3.2.1]octan-8-yl)-2-fluoro-3-(pyrimidin-yl)prop-2-en-1-one]
Second: CN1CCC[C@H]1COc1nc(N2CCN(C(=O)/C(F)=C/c3ccccn3)[C@@H](CC#N)C2)c2cnc(-c3cccc4cccc(Cl)c34)c(F)c2n1 [Compound 19A, 2-((S)-4-(7-(8-chloronaphthalen-1-yl)-8-fluoro-2-(((S)-1-methylpyrrolidin-2-yl)methoxy)pyrido[4,3-d]pyrimidin-4-yl)-1-((Z)-2-fluoro-3-(pyridin-2-yl)acryloyl)piperazin-2-yl)acetonitrile]
The IC50 of the first is 3.7-fold lower: 16 nM for the first, 59 nM for the second.

Going from `C#Cc1cccc2cccc(-c3ncc4c(N(C)[C@@H]5CCN(C(=O)/C(F)=C/c6ccccn6)C5)nc(OC[C@@]56CCCN5C[C@H](F)C6)nc4c3F)c12` [Compound 115, (Z)-1-((R)-3-((7-(8-ethynylnaphthalen-1-yl)-8-fluoro-2-(((2R, 7aS)-2-fluorotetrahydro-1H-pyrrolizin-7a(5H)-yl)methoxy)pyrido[4,3-d]pyrimidin-4-yl)(methyl)amino)pyrrolidin-1-yl)-2-fluoro-3-(pyridin-2-yl)prop-2-en-1-one] to `C#Cc1c(F)ccc2cc(O)cc(-c3ncc4c(N5CCN(C(=O)/C(F)=C/c6nccs6)C[C@@H]5C)nc(OC[C@@]56CCCN5C[C@H](F)C6)nc4c3F)c12` [Example 64, (Z)-1-((S)-4-(7-(8-ethynyl-7-fluoro-3-hydroxynaphthalen-1-yl)-8-fluoro-2-(((2R, 7aS)-2-fluorotetrahydro-1H-pyrrolizin-7a(5H)-yl)methoxy)pyrido[4,3-d]pyrimidin-4-yl)-3-methylpiperazin-1-yl)-2-fluoro-3-(thiazol-2-yl)prop-2-en-1-one], the IC50 falls from 14 nM to 7 nM (2-fold). The second is the more potent here.

Going from `C#Cc1cccc2cccc(-c3ncc4c(N(C)C5CCN(C(=O)/C(F)=C/c6ccccn6)CC5)nc(OC[C@@]56CCCN5C[C@H](F)C6)nc4c3F)c12` [Compound 131, (Z)-1-(4-((7-(8-ethynylnaphthalen-1-yl)-8-fluoro-2-(((2R, 7aS)-2-fluorotetrahydro-1H-pyrrolizin-7a(5H)-yl)methoxy)pyrido[4,3-d]pyrimidin-4-yl)(methyl)amino)piperidin-1-yl)-2-fluoro-3-(pyridin-2-yl)prop-2-en-1-one] to `C#Cc1c(F)ccc2cc(O)cc(-c3ncc4c(N5C[C@H]6CC[C@@H](C5)N6C(=O)/C(F)=C/c5ccc(Br)cn5)nc(OC[C@@]56CCCN5C[C@H](F)C6)nc4c3F)c12` [Compound 9, (Z)-3-(5-bromopyridin-2-yl)-1-((1R, 5S)-3-(7-(8-ethynyl-7-fluoro-3-hydroxynaphthalen-1-yl)-8-fluoro-2-(((2R, 7aS)-2-fluorotetrahydro-1H-pyrrolizin-7a(5H)-yl)methoxy)pyrido[4,3-d]pyrimidin-4-yl)-3,8-diazabicyclo[3.2.1]octan-8-yl)-2-fluoroprop-2-en-1-one], the IC50 falls from 4200 nM to 350 nM (12-fold). The second is the more potent here.

Going from `C#Cc1cccc2cccc(-c3ncc4c(N(C)[C@H]5CN(C(=O)/C(F)=C/c6nccs6)C[C@H]5F)nc(OC[C@@]56CCCN5C[C@H](F)C6)nc4c3F)c12` [Compound 129, (Z)-1-((3S,4R)-3-((7-(8-ethynylnaphthalen-1-yl)-8-fluoro-2-(((2R, 7aS)-2-fluorotetrahydro-1H-pyrrolizin-7a(5H)-yl)methoxy)pyrido[4,3-d]pyrimidin-4-yl)(methyl)amino)-4-fluoropyrrolidin-1-yl)-2-fluoro-3-(thiazol-2-yl)prop-2-en-1-one] to `C#Cc1cccc2cccc(-c3ncc4c(N(C)C5CCN(C(=O)/C(F)=C/c6ccccn6)C5C)nc(OC[C@@]56CCCN5C[C@H](F)C6)nc4c3F)c12` (single isomer, unassigned) [Example 74 trans isomer 2], the IC50 falls from 200 nM to 110 nM (1.8-fold).

First: (Z)-1-(4-(7-(2-amino-7-fluorobenzo[d]thiazol-4-yl)-8-fluoro-2-(((2R, 7aS)-2-fluorotetrahydro-1H-pyrrolizin-7a(5H)-yl)methoxy)pyrido[4,3-d]pyrimidin-4-yl)piperazin-1-yl)-2-fluoro-3-(thiazol-2-yl)prop-2-en-1-one [Example 68]
Second: C#Cc1c(F)ccc2cc(O)cc(-c3ncc4c(N5C[C@H]6CC[C@@H](C5)N6C(=O)/C(F)=C/c5cccc(COC)n5)nc(OC[C@@]56CCCN5C[C@H](F)C6)nc4c3F)c12 [Compound 15, (Z)-1-((1R, 5S)-3-(7-(8-ethynyl-7-fluoro-3-hydroxynaphthalen-1-yl)-8-fluoro-2-(((2R, 7aS)-2-fluorotetrahydro-1H-pyrrolizin-7a(5H)-yl)methoxy)pyrido[4,3-d]pyrimidin-4-yl)-3,8-diazabicyclo[3.2.1]octan-8-yl)-2-fluoro-3-(6-(methoxymethyl)pyridin-2-yl)prop-2-en-1-one]
The IC50 of the first is 3.7-fold higher: 220 nM for the first, 60 nM for the second. The second is the more potent here.

Going from `C#Cc1cccc2cccc(-c3nc(OC)c4c(N5CCN(C(=O)/C(F)=C/c6ccccn6)CC5)nc(OC[C@@]56CCCN5C[C@H](F)C6)nc4c3F)c12` [Compound 109, (Z)-1-(4-(7-(8-ethynylnaphthalen-1-yl)-8-fluoro-2-(((2R, 7aS)-2-fluorotetrahydro-1H-pyrrolizin-7a(5H)-yl)methoxy)-5-methoxypyrido[4,3-d]pyrimidin-4-yl)piperazin-1-yl)-2-fluoro-3-(pyridin-2-yl)prop-2-en-1-one] to `CN1CCC[C@H]1COc1nc(N2CCN(C(=O)/C(F)=C/c3nccs3)[C@@H](CC#N)C2)c2cnc(-c3cccc4cccc(Cl)c34)c(F)c2n1` [Compound 21A, 2-((S)-4-(7-(8-chloronaphthalen-1-yl)-8-fluoro-2-(((S)-1-methylpyrrolidin-2-yl)methoxy)pyrido[4,3-d]pyrimidin-4-yl)-1-((Z)-2-fluoro-3-(thiazol-2-yl)acryloyl)piperazin-2-yl)acetonitrile], the IC50 falls from 240 nM to 67 nM (3.6-fold). The second is the more potent here.

Compared with `CN(c1nc(OC[C@@]23CCCN2C[C@H](F)C3)nc2c(F)c(-c3cccc4cccc(C#N)c34)ncc12)[C@@H]1CCN(C(=O)/C(F)=C/c2nccs2)C1` [Compound 114, 8-(8-fluoro-4-(((R)-1-((Z)-2-fluoro-3-(thiazol-2-yl)acryloyl)pyrrolidin-3-yl)(methyl)amino)-2-(((2R, 7aS)-2-fluorotetrahydro-1H-pyrrolizin-7a(5H)-yl)methoxy)pyrido[4,3-d]pyrimidin-7-yl)-1-naphthonitrile], `N#CC[C@H]1CN(c2nc(OC[C@@]34CCCN3C[C@H](F)C4)nc3c(F)c(-c4ccccc4C(F)(F)F)ncc23)CCN1C(=O)/C(F)=C/c1ccccn1` [Example 33, 2-((S)-4-(8-fluoro-2-(((2R, 7aS)-2-fluorotetrahydro-1H-pyrrolizin-7a(5H)-yl)methoxy)-7-(2-(trifluoromethyl)phenyl)pyrido[4,3-d]pyrimidin-4-yl)-1-((Z)-2-fluoro-3-(pyridin-2-yl)acryloyl)piperazin-2-yl)acetonitrile] is 9.6-fold lower in IC50: 719 nM for the first, 75 nM for the second. The second is the more potent here.

`C#Cc1cccc2cccc(-c3ncc4c(N(C)[C@H]5CN(C(=O)/C(F)=C/c6ccccn6)C[C@H]5F)nc(OC[C@@]56CCCN5C[C@H](F)C6)nc4c3F)c12` [Compound 128, (Z)-1-((3S,4R)-3-((7-(8-ethynylnaphthalen-1-yl)-8-fluoro-2-(((2R, 7aS)-2-fluorotetrahydro-1H-pyrrolizin-7a(5H)-yl)methoxy)pyrido[4,3-d]pyrimidin-4-yl)(methyl)amino)-4-fluoropyrrolidin-1-yl)-2-fluoro-3-(pyridin-2-yl)prop-2-en-1-one] and `N#CC[C@H]1CN(c2nc(OC[C@@]34CCCN3C[C@H](F)C4)nc3c(F)c(-c4ccccc4C4CC4)ncc23)CCN1C(=O)/C(F)=C/c1nccs1` [Compound 80, 2-((2S)-4-(7-(2-cyclopropylphenyl)-8-fluoro-2-(((2R, 7aS)-2-fluorotetrahydro-1H-pyrrolizin-7a(5H)-yl)methoxy)pyrido[4,3-d]pyrimidin-4-yl)-1-((Z)-2-fluoro-3-(thiazol-2-yl)acryloyl)piperazin-2-yl)acetonitrile] are the same in IC50: 30 nM for the first, 30 nM for the second.

Going from `CN1CCC[C@H]1COc1nc(N2CCN(C(=O)/C(F)=C/c3nccs3)[C@@H](CC#N)C2)c2cnc(-c3cccc4ccc(F)cc34)c(F)c2n1` [Example 37, 2-((S)-1-((Z)-2-fluoro-3-(thiazol-2-yl)acryloyl)-4-(8-fluoro-7-(7-fluoronaphthalen-1-yl)-2-(((S)-1-methylpyrrolidin-2-yl)methoxy)pyrido[4,3-d]pyrimidin-4-yl)piperazin-2-yl)acetonitrile] to `N#CC[C@H]1CN(c2nc(OC[C@@]34CCCN3C[C@H](F)C4)nc3c(F)c(-c4cc(Cl)ccc4C(F)(F)F)ncc23)CCN1C(=O)/C(F)=C/c1nccs1` [Example 46, 2-((S)-1-((Z)-2-fluoro-3-(thiazol-2-yl)acryloyl)-4-(8-fluoro-7-(5-chloro-2-(trifluoromethyl)phenyl)-2-(((2R, 7aS)-2-fluorotetrahydro-1H-pyrrolizin-7a(5H)-yl)methoxy)pyrido[4,3-d]pyrimidin-4-yl)piperazin-2-yl)acetonitrile], the IC50 rises from 130 nM to 390 nM (3-fold). The first is the more potent here.
